Results taken from PubChem BioAssay AID2305 (GlaxoSmithKline (GSK), 2010).

Test system: P. falciparum 3D7 growth, pLDH absorbance
Test: P. falciparum 3D7 growth inhibition, dose response, strain 3D7 (AID 2305)

In order of rising IC50:
1. NC1=NC(c2ccccc2)N(c2ccc(Cl)c(Cl)c2)C(N)=N1 (stereo not given)  10 nM
2. COc1ccc(CCc2ccc(-c3c(C)[nH]c(C)c(Cl)c3=O)cc2)cc1  20 nM
3. COc1cc2c(cc1C(F)(F)F)N(C(=O)Nc1cc(OC(F)(F)F)cc(-c3cccnc3)c1)CC2  40 nM
4. C=CCC(C)n1ncc2c3c(N)nc(N)nc3ccc21 (stereo not given)  50 nM
5. O=C(CCCC(=O)Nc1ccc(C2=NCCN2)cc1)Nc1ccc(C2=NCCN2)cc1  110 nM
6. Cc1cccc2[nH]c(-c3cc(-c4cccc(Cl)c4)cnc3N)nc12  120 nM
7. COc1ccc(N2CCN(CCCCNC(=O)c3ccc(NC(=O)c4cc(C(F)(F)F)cc(C(F)(F)F)c4)cc3)CC2)c(OC)c1  150 nM
8. COc1ccc(OCCCON)cc1  170 nM
9. COc1ccccc1-c1nc2c(ccc3nc(N)nc(N)c32)[nH]1  180 nM
10. CSc1nc2nc(C)c(Cc3cccc(C(F)(F)F)c3)c(C)n2n1  190 nM
11. O=C(Nc1ccccc1)Nc1cccc(-c2ccc(-c3nc4ccc(C(F)(F)F)cc4[nH]3)cc2)c1  230 nM
12. Cc1cnccc1/C=C/c1cccc(OCCN2CCc3ccc(S(C)(=O)=O)cc3CC2)c1  270 nM
13. O=C(Nc1ccc(Cl)cc1)c1ccc(CN2CCCN(Cc3cccc(O)c3)CC2)cc1  390 nM
14. c1ccc(-c2cc(NCCCCCCCCNc3cc(-c4ccccc4)nc4ccccc34)c3ccccc3n2)cc1  390 nM
15. COc1cc(NC(=O)Nc2cc(C)nc3ccccc23)cc(OC)c1  400 nM
16. FC(F)(F)c1ccc2nc(-c3ccc(-c4ccc(CNCC5CCCO5)cc4)cc3)[nH]c2c1 (stereo not given)  410 nM
17. C=CCn1c(Sc2ccc(C#N)c([N+](=O)[O-])c2)nnc1-c1cc(OC)cc(OC)c1  440 nM
18. Cc1cc(-c2cccc3c(NC(=O)N4CCc5cc6nccc(N7CCN8CCC[C@H]8C7)c6cc54)cccc23)cc(C)n1  490 nM
19. COc1cccc(NC(=O)NC2CCN(c3ccnc(Nc4ccc(F)cc4)n3)C2)c1 (stereo not given)  570 nM
20. COc1ccc2c(NN=Cc3ccccc3Cl)ccnc2c1  620 nM
21. CCCNC(=O)Nc1ccc(N(C)c2ccnc(NC3CC3)n2)cc1  620 nM
22. NC1CCCN(Cc2cccc(-c3cccc(-c4nc5ccccc5[nH]4)c3)c2)C1 (stereo not given)  640 nM
23. CCOc1ccc2nc(C)cc(NN=Cc3cccc([N+](=O)[O-])c3)c2c1  660 nM
24. COc1cc2c(cc1OCCN1CCC(N3CCCC3)CC1)N(C(=O)/C=C/c1ccccc1Cl)CC2  660 nM
25. CS(=O)(=O)c1ccc2nc(NC(=O)c3csnn3)sc2c1  670 nM
26. COc1ccc(-n2nc(C(=O)NCCC3=CCCCC3)c3ccccc3c2=O)cc1  680 nM
27. C=C[C@]1(C)C[C@@H](OC(=O)CS[C@H]2CN3CC[C@H]2C3)[C@@]2(C)C3C(=O)CC[C@@]3(CC[C@H]2C)[C@@H](C)[C@@H]1O (stereo not given in full)  690 nM
28. N#Cc1ccccc1C(=O)N(Cc1cncn1Cc1cccc(F)c1)CC1CC1  730 nM
29. Cc1cc(=O)c(-c2ccc(OCc3ccc(Cl)cc3)cc2)c(C)[nH]1  730 nM
30. COc1ccc(OCc2ccccn2)c(C2CCN(CCCCNC(=O)c3ccc(NC(=O)c4ccc(Cl)cc4)cc3)CC2)c1  760 nM
31. Cc1[nH]c2ccc(O)cc2c1C1CCN(CCCCCNC(=O)/C=C/c2ccc(Cl)c(Cl)c2)CC1  770 nM
32. Cc1c(C)n(C2CCCC2)c2ncnc(OC3CCN(CC(=O)NC4CC4)CC3)c12  790 nM
33. CCCNC(=O)c1cncc(-c2cccc(CNC3Cc4ccccc4C3)c2)c1  800 nM
34. O=C1COc2cc(Cl)c(CNC3CCN(CCc4ccnc5c(F)cc(F)cc45)CC3)nc2N1  800 nM
35. Nc1ccc2c(N)c3ccccc3nc2c1  810 nM
36. CCC(C)NC(=O)Nc1cccc(-c2cccc(-c3nc4c(C)cccc4[nH]3)c2)c1 (stereo not given)  810 nM
37. O=C(NCc1cccc(C(F)(F)F)c1)c1ccc(CNC(=O)c2ccc(O)c(-c3ccc(Cl)c(Cl)c3)c2)cc1  840 nM
38. CN(c1ccc2c(c1)nc(NCc1ccccc1)n2C)c1ccnc(Nc2ccc(CS(C)(=O)=O)cc2)n1  840 nM
39. CCCOc1ccc(NC(=O)c2cccs2)cc1Cl  860 nM
40. Nc1nc(N)c2c(Oc3ccc(Cl)c(Cl)c3)cccc2n1  870 nM
41. CCN1CCC(N(Cc2ccc(-c3ccc(C(F)(F)F)cc3)cc2)C(=O)Cn2c(SCc3cccc(F)c3F)cc(=O)c3ccccc32)C1 (stereo not given)  880 nM
42. COc1c(C2CCN(CCCCNC(=O)c3ccc(-c4ccc(NC(=O)C(F)(F)F)cc4)cc3)CC2)ccc2c1CCCC2  1000 nM
43. COc1ccc(Nc2nccc(-c3cccc(NC(=O)c4cc5cc(F)ccc5[nH]4)c3)n2)cc1  1030 nM
44. COc1ccc(CC(C)NCC(O)c2cccc(Cl)c2F)cc1 (stereo not given)  1080 nM
45. C=CCn1c(SCc2c(C)noc2C)nc2scc(-c3cccs3)c2c1=O  1100 nM
46. O=S(=O)(c1ccc(OCc2ccc(Cl)cc2)cc1)c1cc2c(cc1OCc1ccccc1)CCN(CC1CC1)CC2  1110 nM
47. COc1cccc(CC(C)NCC(O)c2cccc(Cl)c2)c1 (stereo not given)  1270 nM
48. C=CCc1cc(Cc2cnc(N)nc2N)cc(CCC)c1OC  1360 nM
49. COc1ccc(NC(=O)/C=C/c2ccc(-c3ccc(-c4noc(C)n4)cc3)cc2)cc1OCCN(C)C  1370 nM
50. Oc1ccc(CCNc2nc(NCCCOc3cc(CN4CCCCC4)ccc3F)nc(N3CCNCC3)n2)cc1  1760 nM
